According to ChEMBL document CHEMBL1138334, “From astemizole to a novel hit series of small-molecule somatostatin 5 receptor antagonists via GPCR affinity profiling” (J Med Chem, 2007):

Assays:
[1] = molecular target: Somatostatin receptor type 5 (Homo sapiens, UniProt P35346); experiment: Binding affinity to human SST5R
[2] = molecular target: Somatostatin receptor type 1 (Homo sapiens, UniProt P30872); experiment: Binding affinity to human SST1R
[3] = molecular target: Somatostatin receptor type 2 (Homo sapiens, UniProt P30874); experiment: Binding affinity to human SST2R
Somatostatin receptor type 2, sequence (P30874 whole entry): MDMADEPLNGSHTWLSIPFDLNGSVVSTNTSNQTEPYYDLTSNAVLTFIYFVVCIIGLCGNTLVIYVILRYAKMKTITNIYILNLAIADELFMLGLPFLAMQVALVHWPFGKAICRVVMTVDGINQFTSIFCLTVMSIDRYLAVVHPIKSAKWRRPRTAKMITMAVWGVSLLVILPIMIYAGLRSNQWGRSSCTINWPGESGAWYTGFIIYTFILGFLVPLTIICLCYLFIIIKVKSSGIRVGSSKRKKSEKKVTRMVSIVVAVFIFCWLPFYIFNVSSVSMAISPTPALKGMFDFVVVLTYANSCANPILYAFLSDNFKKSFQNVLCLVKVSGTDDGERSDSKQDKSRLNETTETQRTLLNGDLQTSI

[4] = molecular target: Somatostatin receptor type 3 (Homo sapiens, UniProt P32745); experiment: Binding affinity to human SST3R
Somatostatin receptor type 3, sequence (P32745 whole entry): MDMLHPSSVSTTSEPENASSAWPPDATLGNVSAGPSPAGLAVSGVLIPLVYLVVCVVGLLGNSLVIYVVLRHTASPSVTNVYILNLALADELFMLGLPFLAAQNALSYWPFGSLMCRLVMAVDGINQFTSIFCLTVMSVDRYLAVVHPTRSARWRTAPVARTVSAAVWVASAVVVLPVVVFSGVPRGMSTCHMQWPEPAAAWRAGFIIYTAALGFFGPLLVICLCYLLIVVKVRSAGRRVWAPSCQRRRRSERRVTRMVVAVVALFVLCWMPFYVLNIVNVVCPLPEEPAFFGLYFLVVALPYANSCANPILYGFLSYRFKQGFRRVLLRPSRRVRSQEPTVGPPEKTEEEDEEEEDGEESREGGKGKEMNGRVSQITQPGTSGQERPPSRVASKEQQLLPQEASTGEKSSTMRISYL

[5] = molecular target: Histamine H1 receptor (Homo sapiens, UniProt P35367); experiment: Binding affinity to human histamine H1 receptor
Histamine H1 receptor, sequence (P35367 whole entry): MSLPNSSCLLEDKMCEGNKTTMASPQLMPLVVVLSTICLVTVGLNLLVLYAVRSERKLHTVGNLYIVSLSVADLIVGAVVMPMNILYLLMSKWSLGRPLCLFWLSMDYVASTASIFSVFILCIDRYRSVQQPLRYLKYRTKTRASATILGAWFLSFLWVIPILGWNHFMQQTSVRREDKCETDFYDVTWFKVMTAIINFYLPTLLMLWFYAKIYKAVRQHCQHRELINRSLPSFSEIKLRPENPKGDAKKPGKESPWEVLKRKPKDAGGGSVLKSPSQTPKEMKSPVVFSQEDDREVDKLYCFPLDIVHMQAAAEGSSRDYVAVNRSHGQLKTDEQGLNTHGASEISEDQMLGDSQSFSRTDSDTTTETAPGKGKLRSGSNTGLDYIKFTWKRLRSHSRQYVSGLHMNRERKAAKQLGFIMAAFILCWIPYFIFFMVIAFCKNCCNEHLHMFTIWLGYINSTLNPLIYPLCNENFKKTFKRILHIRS

[6] = molecular target: Voltage-gated inwardly rectifying potassium channel KCNH2 (Homo sapiens, UniProt Q12809); experiment: Binding affinity to human ERG channel
Voltage-gated inwardly rectifying potassium channel KCNH2, sequence (Q12809 whole entry): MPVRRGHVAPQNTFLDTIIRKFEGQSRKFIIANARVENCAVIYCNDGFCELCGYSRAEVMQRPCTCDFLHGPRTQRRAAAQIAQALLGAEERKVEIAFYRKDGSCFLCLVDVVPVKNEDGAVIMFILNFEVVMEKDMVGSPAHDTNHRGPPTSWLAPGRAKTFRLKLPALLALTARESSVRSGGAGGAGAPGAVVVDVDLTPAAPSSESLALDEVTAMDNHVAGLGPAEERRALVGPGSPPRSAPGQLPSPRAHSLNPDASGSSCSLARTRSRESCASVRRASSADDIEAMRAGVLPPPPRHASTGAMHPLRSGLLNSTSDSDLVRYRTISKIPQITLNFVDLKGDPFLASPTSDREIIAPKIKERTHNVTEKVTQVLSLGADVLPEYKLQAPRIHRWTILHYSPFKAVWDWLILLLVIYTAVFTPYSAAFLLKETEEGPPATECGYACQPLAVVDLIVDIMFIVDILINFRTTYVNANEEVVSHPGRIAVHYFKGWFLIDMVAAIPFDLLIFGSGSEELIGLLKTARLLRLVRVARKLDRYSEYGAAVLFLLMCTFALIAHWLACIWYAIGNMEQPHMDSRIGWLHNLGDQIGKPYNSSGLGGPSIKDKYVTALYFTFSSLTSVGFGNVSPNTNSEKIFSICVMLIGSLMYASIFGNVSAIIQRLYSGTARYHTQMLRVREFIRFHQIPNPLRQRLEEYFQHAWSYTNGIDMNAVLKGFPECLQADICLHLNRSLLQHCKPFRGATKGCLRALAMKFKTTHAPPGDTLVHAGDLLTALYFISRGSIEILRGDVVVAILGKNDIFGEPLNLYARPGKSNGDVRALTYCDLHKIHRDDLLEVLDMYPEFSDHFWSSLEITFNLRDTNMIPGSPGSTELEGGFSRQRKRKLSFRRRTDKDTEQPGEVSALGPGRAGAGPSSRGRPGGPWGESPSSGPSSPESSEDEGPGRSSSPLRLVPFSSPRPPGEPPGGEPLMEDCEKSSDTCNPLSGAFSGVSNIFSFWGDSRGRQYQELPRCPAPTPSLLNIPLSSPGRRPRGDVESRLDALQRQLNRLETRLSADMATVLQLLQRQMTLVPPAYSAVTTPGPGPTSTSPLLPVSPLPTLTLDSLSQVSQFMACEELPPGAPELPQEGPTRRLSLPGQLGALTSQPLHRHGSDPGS

Somatostatin receptor type 5, sequence (P35346 whole entry): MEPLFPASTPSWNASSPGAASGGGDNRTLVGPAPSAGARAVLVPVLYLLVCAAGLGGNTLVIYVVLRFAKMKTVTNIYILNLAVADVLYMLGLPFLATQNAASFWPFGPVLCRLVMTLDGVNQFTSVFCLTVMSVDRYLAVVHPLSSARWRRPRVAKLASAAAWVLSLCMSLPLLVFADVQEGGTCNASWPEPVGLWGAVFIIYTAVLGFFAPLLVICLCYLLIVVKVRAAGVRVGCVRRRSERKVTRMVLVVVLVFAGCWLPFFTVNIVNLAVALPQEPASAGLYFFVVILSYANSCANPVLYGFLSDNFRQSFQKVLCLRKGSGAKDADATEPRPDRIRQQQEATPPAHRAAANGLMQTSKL
Somatostatin receptor type 1, sequence (P30872 whole entry): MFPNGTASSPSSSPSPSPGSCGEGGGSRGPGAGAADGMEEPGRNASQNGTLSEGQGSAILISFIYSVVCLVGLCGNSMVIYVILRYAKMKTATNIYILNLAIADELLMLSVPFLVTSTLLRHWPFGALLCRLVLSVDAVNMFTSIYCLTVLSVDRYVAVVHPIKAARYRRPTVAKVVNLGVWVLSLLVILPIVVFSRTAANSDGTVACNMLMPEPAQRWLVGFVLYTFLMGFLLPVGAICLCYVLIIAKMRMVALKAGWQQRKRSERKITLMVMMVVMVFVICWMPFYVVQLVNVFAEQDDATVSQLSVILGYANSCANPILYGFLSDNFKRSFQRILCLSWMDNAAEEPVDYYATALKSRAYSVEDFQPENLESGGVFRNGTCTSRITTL

SMILES	Ki [1] [nM]	Ki [5] [nM]	further results
CCOc1cc(CN2CCC(NC(=O)c3cccc(S(C)(=O)=O)c3)CC2)ccc1Cl	60	> 5000	IC50 [6]: 1300 nM
COc1cc(CN2CCC(NC(=O)c3ccccc3)CC2)c(OC)c2ccccc12	120	–	–
COc1cc(CN2CCC3(CC2)OC(=O)c2ccccc23)c(OC)c2ccccc12	1100	–	–

More lines, in order of falling Ki [1], values ahead:

Ki [1] [nM]	Ki [5] [nM]	SMILES	further results
40	–	COc1cc(CN2CCC(NC(=O)c3cncc(C)c3)CC2)c(OC)c2ccccc12	–
20	270	CCOc1cc(CN2CCC(NC(=O)c3cncc(C)c3)CC2)ccc1Cl	Ki [2]: 5100 nM; Ki [3]: > 10000 nM; Ki [4]: > 10000 nM
20	–	COc1cc(CN2CCC(NC(=O)c3ccc(C(C)(C)C)cc3)CC2)c(OC)c2ccccc12	–
